Measured values: patent publication US10370371B2, “Substituted pyrimidine Bmi-1 inhibitors” (PTC Therapeutics, Inc., priority 2013, dated 2019)

Key:
Bmi-1 protein = assay: Sandwich ELISA Assay (Bmi-1 protein level in HT-1080 cells); type: cell-based
How it was run: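 HT-1080 cells were treated with compounds (0.5% DMSO final) for 40-48 h at 37 °C. Lysates were assayed by sandwich ELISA: mouse anti-Bmi-1 capture, rabbit anti-Bmi-1 and HRP anti-rabbit detection, TMB read at OD450 (OD570 reference). Levels were quantified against a recombinant GST-Bmi-1 standard curve (125-8000 pg/mL).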

| melting point [°C] | EC50 (Bmi-1 protein) [nM] | SMILES |
| --- | --- | --- |
| 104 to 106 | 1 to 10 | CCc1nc2ccccc2n1-c1cc(N)nc(Nc2ccc(OC)c(F)c2)n1 [Cpd 155, 6-(2-ethyl-1H-benzimidazol-1-yl)-N^2-(3-fluoro-4-methoxyphenyl)pyrimidine-2,4-diamine] |
| 100 to 103 | 10 to 100 | CCc1nc2ccccc2n1-c1cc(N)nc(Nc2ccc(OC)c(Cl)c2)n1 [Cpd 156, N^2-(3-chloro-4-methoxyphenyl)-6-(2-ethyl-1H-benzimidazol-1-yl)pyrimidine-2,4-diamine] |
| 104 to 106 | 10 to 100 | COc1ccc(Nc2nc(N)cc(-n3c(C)nc4ccccc43)n2)cn1 [Cpd 157, N^2-(6-methoxypyridin-3-yl)-6-(2-methyl-1H-benzimidazol-1-yl)pyrimidine-2,4-diamine] |
| 185 to 187 | 1 to 10 | CCc1nc2ccc(F)cc2n1-c1cc(N)nc(Nc2ccc(Cl)cc2)n1 [Cpd 158, N^2-(4-chlorophenyl)-6-(2-ethyl-6-fluoro-1H-benzimidazol-1-yl)pyrimidine-2,4-diamine] |
| 160 to 162 | 100 to 3000 | CCc1nc2ccc(F)cc2n1-c1cc(N)nc(Nc2ccccc2)n1 [Cpd 159, 6-(2-ethyl-6-fluoro-1H-benzimidazol-1-yl)-N^2-phenylpyrimidine-2,4-diamine] |
| 187 to 189 | 1 to 10 | CCc1nc2ccc(F)cc2n1-c1cc(N)nc(Nc2ccc(C)cc2)n1 [Cpd 160, 6-(2-ethyl-6-fluoro-1H-benzimidazol-1-yl)-N^2-(4-methylphenyl)pyrimidine-2,4-diamine] |
| 166 to 168 | 1 to 10 | CCc1nc2ccc(F)cc2n1-c1cc(N)nc(Nc2ccc(OC)cc2)n1 [Cpd 161, 6-(2-ethyl-6-fluoro-1H-benzimidazol-1-yl)-N^2-(4-methoxyphenyl)pyrimidine-2,4-diamine] |
| 230 to 232 | 10 to 100 | CCc1nc2ccc(F)cc2n1-c1cc(N)nc(Nc2ccc(N(C)C)cc2)n1 [Cpd 162, N^2-[4-(dimethylamino)phenyl]-6-(2-ethyl-6-fluoro-1H-benzimidazol-1-yl)pyrimidine-2,4-diamine] |
| 169 to 171 | 100 to 3000 | CCc1nc2ccc(F)cc2n1-c1cc(N)nc(Nc2cccc(F)c2)n1 [Cpd 163, 6-(2-ethyl-6-fluoro-1H-benzimidazol-1-yl)-N^2-(3-fluorophenyl)pyrimidine-2,4-diamine] |
| 133 to 135 | 100 to 3000 | CCc1nc2ccc(F)cc2n1-c1cc(N)nc(Nc2cccc(OC)c2)n1 [Cpd 165, 6-(2-ethyl-6-fluoro-1H-benzimidazol-1-yl)-N^2-(3-methoxyphenyl)pyrimidine-2,4-diamine] |
| 149 to 150 | 100 to 3000 | CCc1nc2ccc(F)cc2n1-c1cc(N)nc(Nc2cccc(C)c2)n1 [Cpd 166, 6-(2-ethyl-6-fluoro-1H-benzimidazol-1-yl)-N^2-(3-methylphenyl)pyrimidine-2,4-diamine] |
| 252 to 255 | 100 to 3000 | CCc1nc2ccc(F)cc2n1-c1cc(N)nc(Nc2ccc(C#N)cc2)n1 [Cpd 167, 4-{[4-amino-6-(2-ethyl-6-fluoro-1H-benzimidazol-1-yl)pyrimidin-2-yl]amino}benzonitrile] |
| 129 to 131 | 1 to 10 | CCc1nc2ccc(F)cc2n1-c1cc(N)nc(Nc2ccc(OC)c(F)c2)n1 [Cpd 168, 6-(2-ethyl-6-fluoro-1H-benzimidazol-1-yl)-N^2-(3-fluoro-4-methoxyphenyl)pyrimidine-2,4-diamine] |
| 250 to 253 | 100 to 3000 | Cc1nc2ccc(F)cn2c1-c1cc(N)nc(Nc2ccc(F)cc2)n1 [Cpd 169, 6-(6-fluoro-2-methylimidazo[1,2-a]pyridin-3-yl)-N^2-(4-fluorophenyl)pyrimidine-2,4-diamine] |
| 243 to 246 | 1 to 10 | Cc1nc2ccc(F)cn2c1-c1cc(N)nc(Nc2ccc(Cl)cc2)n1 [Cpd 172, N^2-(4-chlorophenyl)-6-(6-fluoro-2-methylimidazo[1,2-a]pyridin-3-yl)pyrimidine-2,4-diamine] |
| 209 to 211 | 10 to 100 | CCc1nc2ccc(F)cc2n1-c1cc(N)nc(Nc2ccc(Cl)c(F)c2)n1 [Cpd 175, N^2-(4-chloro-3-fluorophenyl)-6-(2-ethyl-6-fluoro-1H-benzimidazol-1-yl)pyrimidine-2,4-diamine] |
| 111 to 112 | 100 to 3000 | Cc1cc2nc(C)n(-c3cc(N)nc(Nc4ccc(Cl)cc4)n3)c2cc1C [Cpd 184, N^2-(4-chlorophenyl)-6-(2,5,6-trimethyl-1H-benzimidazol-1-yl)pyrimidine-2,4-diamine] |
| 113 to 114 | 10 to 100 | COc1ccc(Nc2nc(N)cc(-n3c(C)nc4cc(C)c(C)cc43)n2)cc1 [Cpd 185, N^2-(4-methoxyphenyl)-6-(2,5,6-trimethyl-1H-benzimidazol-1-yl)pyrimidine-2,4-diamine] |
| 120 to 121 | 10 to 100 | COc1ccc(Nc2nc(N)cc(-n3c(C)nc4cc(C)c(C)cc43)n2)cc1F [Cpd 186, N^2-(3-fluoro-4-methoxyphenyl)-6-(2,5,6-trimethyl-1H-benzimidazol-1-yl)pyrimidine-2,4-diamine] |
| 129 to 131 | 10 to 100 | COc1ccc(Nc2nc(N)cc(-n3c(C)nc4cc(C)c(C)cc43)n2)cc1Cl [Cpd 187, N^2-(3-chloro-4-methoxyphenyl)-6-(2,5,6-trimethyl-1H-benzimidazol-1-yl)pyrimidine-2,4-diamine] |
| 89 to 91 | 10 to 100 | Cc1cc2nc(C)n(-c3cc(N)nc(Nc4ccc(OC(F)F)cc4)n3)c2cc1C [Cpd 188, N^2-[4-(difluoromethoxy)phenyl]-6-(2,5,6-trimethyl-1H-benzimidazol-1-yl)pyrimidine-2,4-diamine] |
| 89 to 91 | 100 to 3000 | COc1ccc(Nc2nc(N)cc(-c3c(C)noc3C)n2)cc1 [Cpd 189, 6-(3,5-dimethyl-1,2-oxazol-4-yl)-N^2-(4-methoxyphenyl)pyrimidine-2,4-diamine] |
